Drawing on patent US20240124442A1, “TRICYCLIC-AMIDO-BICYCLIC PRMT5 INHIBITORS” (AMGEN INC., priority 2021, published 2024), this text covers IC50 for 10 compounds.

The subject of assay [1] is HCT116 MTAP null cells. Kind of assay: HCT116 MTAP null cell line proliferation / cell viability (CellTiter-Glo, 6 days). The following applies: 144 h; HCT116 MTAP null cells, 6 days treatment, CellTiter-Glo cell viability; read-out: HCT-116 MTAP null IC50. In kind it is cell-based. In a few lines: (§1)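 Isogenic HCT116 parent and MTAP-knockout cells in RPMI 1640 + 10% FBS, plated overnight, then exposed to compound for 6 days (37 °C, 5% CO2). Viability by CellTiter-Glo luminescence. Dilutions: 8–9 points from 1 or 10 μM (1:3), or 22 points from 10 or 50 μM (1:2); IC50 by 4-parameter or Hill −1 fit.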

The subject of assay [2] is HCT116 WT cells. Nature of the assay: HCT116 WT (parent) cell line proliferation / cell viability (CellTiter-Glo, 6 days). In kind it is cell-based. As to conditions: Homo sapiens, HCT-116, 144 h, 6 days treatment. In a few lines:
as §1

In the case of `CN(C(=O)c1ccc2nc(N)c3cnn(C)c3c2c1)[C@@H]1COc2cc(OC3COC3)ccc21` [Example 677, 4-amino-N,1-dimethyl-N-((3S)-6-(3-oxetanyloxy)-2,3-dihydro-1-benzofuran-3-yl)-1H-pyrazolo[4,3-c]quinoline-8-carboxamide], the IC50 in assay [1] is 137 nM; in assay [2], 9810 nM.
Taken in the same sequence, the figures for `COCCOc1ccc2c(c1)OC[C@H]2N(C)C(=O)c1ccc2nc(N)c3cnn(C)c3c2c1` [Example 678, 4-amino-N-((3S)-6-(2-methoxyethoxy)-2,3-dihydro-1-benzofuran-3-yl)-N,1-dimethyl-1H-pyrazolo[4,3-c]quinoline-8-carboxamide] were 29 nM and 2780 nM.
For the compound `Cc1ccc2c(n1)COC[C@H]2N(C)C(=O)c1ccc2nc(N)c3cnn(C)c3c2c1` [Example 679, (S)-4-amino-N,1-dimethyl-N-(2-methyl-5,8-dihydro-6H-pyrano[3,4-b]pyridin-5-yl)-1H-pyrazolo[4,3-c]quinoline-8-carboxamide], the IC50 was 26 nM in assay [1] and 2270 nM in assay [2].
Taken in the same sequence, the figures for `Cc1ccc2c(c1)OC[C@H]2N(C)C(=O)c1ccc2nc(N)c3cnn(C)c3c2c1` [Example 683, 4-amino-N,1-dimethyl-N-((3S)-6-methyl-2,3-dihydro-1-benzofuran-3-yl)-1H-pyrazolo[4,3-c]quinoline-8-carboxamide] were 38 nM and 3580 nM.
Regarding `CN(C(=O)c1ccc2nc(N)c3cnn(C)c3c2c1)[C@@H]1COCc2nc(C3CC3)ccc21` [Example 684, 4-amino-N-((5S)-2-cyclopropyl-5,8-dihydro-6H-pyrano[3,4-b]pyridin-5-yl)-N,1-dimethyl-1H-pyrazolo[4,3-c]quinoline-8-carboxamide], the IC50 in assay [1] is 6 nM; in assay [2], 227 nM.
On the same counts, the results for `COC(=O)c1ccc2c(c1)OC[C@H]2N(C)C(=O)c1ccc2nc(N)c3cnn(C)c3c2c1` [Example 685, methyl (S)-3-(4-amino-N,1-dimethyl-1H-pyrazolo[4,3-c]quinoline-8-carboxamido)-2,3-dihydrobenzofuran-6-carboxylate] are 22 nM and 1520 nM.
On the same counts, the results for `CN(C(=O)c1ccc2nc(N)c3cnn(C)c3c2c1)[C@@H]1COc2cc(CO)ccc21` [Example 686, (S)-4-amino-N-(6-(hydroxymethyl)-2,3-dihydrobenzofuran-3-yl)-N,1-dimethyl-1H-pyrazolo[4,3-c]quinoline-8-carboxamide] are 129 nM and 11400 nM.
On the same counts, the results for `CN(C(=O)c1ccc2nc(N)c3cnn(C)c3c2c1)[C@@H]1COc2cc(Cl)ccc21` [Example 687, (S)-4-amino-N-(6-chloro-2,3-dihydrobenzofuran-3-yl)-N,1-dimethyl-1H-pyrazolo[4,3-c]quinoline-8-carboxamide 2,2,2-trifluoroacetate] are 12 nM and 846 nM.
On to `CN(C(=O)c1ccc2nc(N)c3cnn(C)c3c2c1)[C@@H]1COc2cc(C3CCOCC3)ccc21` [Example 688, (S)-4-amino-N,1-dimethyl-N-(6-(tetrahydro-2H-pyran-4-yl)-2,3-dihydrobenzofuran-3-yl)-1H-pyrazolo[4,3-c]quinoline-8-carboxamide], for which the IC50 was 5 nM in assay [1] and 431 nM in assay [2].
As for `CC(=O)N1CC=C(c2ccc3c(c2)OCC3N(C)C(=O)c2ccc3nc(N)c4c(c3c2)COC4)CC1` (centres unmarked) [Example 689, N-(6-(1-acetyl-1,2,3,6-tetrahydropyridin-4-yl)-2,3-dihydrobenzofuran-3-yl)-4-amino-N-methyl-1,3-dihydrofuro[3,4-c]quinoline-8-carboxamide], the IC50 in assay [1] is 101 nM; in assay [2] it was 4540 nM.
